Results taken from patent publication US6027747A, “Process for the production of dry pharmaceutical forms and the thus obtained pharmaceutical compositions” (priority 1998, dated 2000).
Several values for one entry are separate records, joined by “and”; a condition that tells them apart may be missing. Identical values can stand only once.

Experiment: Kinetics of dissolution of fenofibrate (UV 278 nm)
Assay type: physicochemical
Conditions: for kinetics of dissolution of fenofibrate: 5 mg/l, one value per dish, Dish 1 to 6 in order
Protocol: The system of measurements used for the galenical control of the solid dispersions was made of two members: an apparatus of dissolution DISSOLUTEST DT 6 from ERWEKA [Euraf 55 rue Deschanel 92400 Courbevoie (France)] and a peristaltic pump 505 SR WATSON-MARLOW from Prolabo. Each test of dissolution was performed in one liter of degassed distilled water at 37° C. and at a pH near neutral. A sample of 4 mg of estradiol (i.e. 25 mg co-precipitate) was introduced in each of the six reactors at time t=0 and the speed of stirring of the paddles was 100 rounds/min. The dosages by UV (absorption at 278 nm) were performed continuously and in a closed circuit of a multi-channel peristaltic pump, connecting the beakers of the Dissolutest to the dishes of the spectrophometer. The latter was linked to a recorder and to a printing machine to permit the measurement at steady intervals of every 3 minutes of the variations of the optical density, themselves being proportional to the variations of the concentration of the active ingredient in the dissolution medium.
This was identical to that used for the study of the kinetics of dissolution for the co-precipitates of estradiol.
Therefore, it had been decided to prepare a calibrating range at 5 mg/l as for progesterone and to determine the kinetics of dissolution while introducing an equivalent amount of co-precipitate.

In the case of `CC(C)OC(=O)C(C)(C)Oc1ccc(C(=O)c2ccc(Cl)cc2)cc1` [Fenofibrate], the “kinetics of dissolution of fenofibrate” value (0 min) is reported as 0, the “kinetics of dissolution of fenofibrate” value (3 min) is reported as 95.26 and 98.94 and 93.68 and 94.21 and 93.15 and the “kinetics of dissolution of fenofibrate” value (6 min) is reported as 92.1 and 95.78 and 91.05 and 90.52. The “kinetics of dissolution of fenofibrate” value (9 min) was 87.89 and 91.05 and 86.31 and 85.78, the “kinetics of dissolution of fenofibrate” value (12 min) was 83.68 and 86.31 and 82.1 and 83.15 and 80.52 and the “kinetics of dissolution of fenofibrate” value (15 min) was 80.52 and 83.15 and 78.42 and 80 and 76.84. For the same compound, the “kinetics of dissolution of fenofibrate” value (18 min) was 77.89 and 77.36 and 80 and 75.26 and 74.21, the “kinetics of dissolution of fenofibrate” value (21 min) was 74.73 and 76.84 and 71.57 and 73.68 and 71.05 and the “kinetics of dissolution of fenofibrate” value (24 min) was 72.1 and 73.68 and 68.94 and 71.05 and 68.42. For the same compound, the “kinetics of dissolution of fenofibrate” value (27 min) was 70 and 71.57 and 66.84 and 68.94 and 66.31, the “kinetics of dissolution of fenofibrate” value (30 min) was 68.42 and 67.89 and 69.47 and 64.73 and 67.36 and the “recrystallization in the course of the dissolution test” value (in words) was “a recrystallization of fenofibrate had been observed”.
